Results taken from PMC9017425, “Integrative Analysis of Pharmacokinetic and Metabolomic Profiles for Predicting Metabolic Phenotype and Drug Exposure Caused by Sotorasib in Rats” (Frontiers in Oncology, 2022).
Read-outs that look alike come from different tables or passages of the source.

Key:
[1] = set-up: method as in PMID 33957355; details: mice, single oral 20 mg/kg; cited from earlier work
[2] = Pharmacokinetic study of sotorasib in rats after oral administration (HPLC-MS/MS of plasma); format: in vivo; details: male, Sprague-Dawley, rat
Description: For the PK study, a chromatographic system of Shimadzu LC-20ADXR (Kyoto, Japan) coupled with a mass spectrometer (QTRAP 5500; SCIEX, Concord, Canada) was utilized for chromatographic separation and mass quantitation ([19]). The column temperature was set to 40°C on a reversed-phase C18 column (50 mm × 2.1 mm i.d., 3.5 μm) (XBrige; Waters, Milford, MA, USA), and the total run time was 3.0 min. Both mobile phases contained 0.1% formic acid. Gradient elution was adopted to comply with the compounds’ baseline separation (0–0.1 min, 90% water phase; 0.1–1.2 min, 10% water phase; 1.2–2.2 min, 0% water phase; and 2.2–3.0 min, 90% water phase). The flow rate was fixed at 0.4 ml/min with an injection volume of 2 μl. A time-efficient washing procedure composed of MeOH/water/ACN/IPA (1:1:1:1, v/v/v/v) was applied during the entire analyses. Multiple reaction monitoring (MRM) was utilized with the following parameters: ion spray voltage, 5,500 V; temperature, 550°C; curtain gas, 20.0 psi; ion source, gas 1 at 55.0 psi; and turbo ion source, gas 2 at 55.0 psi. A proton adduct [M+H]^+ ion and double MRM transitions were used, which were set at m/z 561.4→317.1 (qualifier) and m/z 561.4→134.1 (quantifier) for sotorasib and at 237.0→194.1 for the IS.
During the PK study, all unknown plasma samples were mixed for 1 min and 20 μl aliquot of plasma was pipetted into an Eppendorf centrifuge tube. Protein precipitation was adopted for the preparation of the sample. After the addition of 10 μl IS working solution (10 ng/ml) and 80 μl MeOH, proteins were extracted by vortex mixing for approximately 30 s. The supernatant was centrifuged at 13,500 rpm for 10 min at 4°C. The extraction solutions were then pipetted into autosampler vials.
Six Sprague–Dawley rats (180–220 g, 8-week-old males; animal license: SCXK-2019-0008) were purchased from Beijing Vital River Laboratory Animal Technologies Co., Ltd. (Beijing, China). All rats were fed in a specific pathogen-free (SPF) conditioned room to allow acclimatization for 1 week. Animal experiments were implemented in line with the Guidelines for the Care and Use of Laboratory Animals, and animal ethics was approved by Beijing Chao-Yang Hospital, Capital Medical University. Rats were orally administered sotorasib dissolved with 1% Tween-80 and 2% hydroxypropyl methylcellulose (HPMC) in water at a dose of 10 mg/kg. Biological samples (approximately 500 μl) were collected from ophthalmic veins into heparin-anticoagulated collection tubes before administration and at 15 min, 30 min, and 1, 1.5, 2, 2.5, 3, 4, and 8 h after administration. Plasma samples were acquired by direct centrifugation at 3,500 rpm for 10 min at 4°C.
Raw data files were processed and checked using Analyst 1.6.3 and MultiQuant 3.0.1 (SCIEX, Concord, Canada). The concentrations of the analytes were calculated according to the calibration curve. Pharmacokinetic parameters, such as C max and the area under the curve (AUC), were calculated using Phoenix WinNonLin software (Pharsight 8.3, Mountain View, CA, USA). Pearson’s correlation was employed to investigate the correlation between the metabolomic data and PK parameters using IBM SPSS 26.0 (Armonk, NY, USA). SIMCA-P software (v14.1; Umetric, Umeå, Sweden) was employed to build mathematical models, including unsupervised principal component analysis (PCA), supervised orthogonal projection to latent structures discriminant analysis (OPLS-DA), and partial least squares (PLS). Compounds with values of variable importance in the projections (VIP) >1 and statistical significance of p < 0.05 were selected for further identification and metabolic pathway analysis. One hundred or 200 random permutation tests were employed to examine overfitting and random effects, which can assess the predictive ability of the model. Meanwhile, significant variables with p < 0.05 and fold change (FC) >2 or <0.5 were considered potential biomarkers. […]

[3] = set-up: method as in PMID 33283304; details: oral administration, 50 mg/kg; cited from earlier work
[4] = Working solution stability of sotorasib; format: physicochemical; details: −80°C for 10 days, n = 6
Description: Stock solutions of sotorasib and IS were equipped using ACN at a concentration of 1.0 mg/ml and further diluted for the calibration standards and quality control (QC) samples at a final concentration of 500 µg/ml separately. The working IS solution was prepared in MeOH at a concentration of 10 ng/ml. The working calibration solutions of sotorasib were completed in dilution (MeOH/water = 1:1, v/v) to obtain concentrations of 5, 10, 20, 50, 100, 100, 200, 500, 1,000, 2,000, and 5,000 ng/ml. Similarly, the QC working solutions of analytes were prepared to obtain final concentrations of 10, 200, and 4,000 ng/ml. All solutions were stored in a −80°C freezer pending analysis. For the PK study, calibrations were made in blank rat plasma to achieve a nominal concentration range of 0.5–500 ng/ml. QC plasma samples were prepared in blank rat plasma at nominal concentrations of 1, 20, and 400 ng/ml. Stability was investigated at LQC and HQC concentrations in six replicates. The stability conditions incorporated the short-term (at ambient temperature for 24 h), freeze–thaw (−80°C to ambient temperature, three sequential cycles), post-preparation (autosampler, 24 h), and long-term (−80°C for 3 months) status. If the %Bias is within ±15%, the stability is considered acceptable.

[5] = Stability of sotorasib in rat plasma QC samples under different storage conditions; format: in vitro ADME; details: for Post-preparation stability, measured concentration Mean ± SD / Room temperature stability, measured concentration Mean ± SD / Freeze–thaw stability, measured concentration Mean ± SD / Long-term stability, measured concentration Mean ± SD: n = 6; for Room temperature stability, measured concentration Mean ± SD: rat plasma, ambient temperature; for Freeze–thaw stability, measured concentration Mean ± SD: three cycles −80°C to ambient temperature; for Long-term stability, measured concentration Mean ± SD: −80°C for 3 months
Excerpt: Stability was investigated at LQC and HQC concentrations in six replicates. […] If the %Bias is within ±15%, the stability is considered acceptable.

[6] = rats, 10 mg/kg, n = 6, mean ± SD

C=CC(=O)N1CCN(c2nc(=O)n(-c3c(C)ccnc3C(C)C)c3nc(-c4c(O)cccc4F)c(F)cc23)[C@@H](C)C1 [Sotorasib]
AUC0–4 [1]: 3,766 ± 896 ng·h/ml
C max [1]: 4,231 ± 1,208 ng/ml
T max [1]: 12.6 ± 3.6 min
t 1/2 [1]: 36 ± 3.6 min
time in which C max was achieved [1]: < 15 min
concentration at 15 min ([2]; 10-mg/kg dose, 15 min after administration, single sample, read-out: plasma concentration of an unknown sample): 298 ng/mL
AUC(0-inf) [2, 6]: 463 ± 167 ng·h/mL
AUC(0-t) [2, 6]: 457 ± 165 ng·h/mL
Cmax [2, 6]: 227 ± 98.8 ng/mL
half-life [2, 6]: 74.4 ± 13.2 min
CL/F ([2]; rats, 10 mg/kg, n = 6, mean ± SD, read-out: CL_F (apparent clearance) (converted)): 400 mL/min/kg
MRT ([2]; rats, 10 mg/kg, n = 6, mean ± SD, read-out: MRT (mean residence time)): 113 ± 10.8 min
Vd/F ([2]; rats, 10 mg/kg, n = 6, mean ± SD, read-out: Vz_F (apparent volume of distribution)): 43.3 ± 17.9 L/kg
Tmax ([2]; rats, 10 mg/kg, n = 6, median (range)): 30 min
AUC0–∞ [3]: 170 ng·h/mL
C max [3]: 123 ng/mL
T max [3]: 15 min
t 1/2 [3]: 114 min
Working solution stability, measured concentration Mean ± SD ([4]; nominal 1 ng/ml): 1.034 ± 0.08 ng/mL
Working solution stability, measured concentration Mean ± SD ([4]; nominal 400 ng/ml): 409.37 ± 37.98 ng/mL
stability under several storage conditions in plasma or in solution ([5]; ambient temperature 6 h, three freeze–thaw cycles, autosampler 24 h, working solution −80°C 10 days, −80°C 3 months): stable
Post-preparation stability, measured concentration Mean ± SD ([5]; nominal 1 ng/ml, autosampler 24 h): 1.07 ± 0.06 ng/mL
Room temperature stability, measured concentration Mean ± SD ([5]; nominal 1 ng/ml): 1.03 ± 0.10 ng/mL
Freeze–thaw stability, measured concentration Mean ± SD ([5]; nominal 1 ng/ml): 1.06 ± 0.07 ng/mL
Long-term stability, measured concentration Mean ± SD ([5]; nominal 1 ng/ml): 1.01 ± 0.07 ng/mL
Post-preparation stability, measured concentration Mean ± SD ([5]; nominal 400 ng/ml, autosampler 24 h): 441.20 ± 10.76 ng/mL
Room temperature stability, measured concentration Mean ± SD ([5]; nominal 400 ng/ml): 434.00 ± 8.07 ng/mL
Freeze–thaw stability, measured concentration Mean ± SD ([5]; nominal 400 ng/ml): 448.60 ± 6.19 ng/mL
Long-term stability, measured concentration Mean ± SD ([5]; nominal 400 ng/ml): 399.67 ± 20.10 ng/mL
